Reference: patent US20100204460A1, “NATURAL BRASSINOSTEROIDS FOR USE FOR TREATING HYPERPROLIFERATION, TREATING PROLIFERATIVE DISEASES AND REDUCING ADVERSE EFFECTS OF STEROID DYSFUNCTION IN MAMMALS, PHARMACEUTICAL COMPOSITION AND ITS USE” (priority 2007, published 2010)
“And” between values parts separate entries of the source, which are not always exact repeats. Identical values can stand only once.

Columns and labels:
Assay type in all cases: cell-based
LNCaP cells [1] = test: BrdU incorporation assay, LNCaP
Description: To analyze if the inhibition in cell viability was due to decreased cell proliferation, we measured DNA synthesis in the presence of BRs. The effect of brassinosteroids 9 or 6 on cell proliferation and DNA replication of the cancer cells was measured by BrdU incorporation assay. This immunostaining was based on nuclear incorporation of bromodeoxyuridine (BrdU) into DNA in place of thymidine during the S-phase of cell cycle detected by anti-specific-BrdU antibody following membrane permeabilization as described previously (Gratzner, Science. 1982, 218, 474-475). […] The BrdU reagent (0.1 mM; Sigma, MO, USA) was added in culture medium with cells for 4 h in a CO2 incubator at 37° C. After incubation the cells were washed three times with PBS and fixed with cold acetone-methanol (1:1, v/v) for 10 min. The cells were denaturated by HCl (1:5; Lachema, Czech Republic) and incubated with anti-specific-BrdU antibody (diluted 1:100 in PBS; clone Bu20a, DakoCytomation, Denmark) for 60 min in the dark. The cells were then washed three times in PBS (10 mM, pH 7.4) and incubated with goat anti-mouse fluorescein isothiocyanate (FITC)-labeled secondary antibody (Sigma, MO, USA) for 60 min in the dark. The cells were then washed three times in PBS and incubated with DAPI (50 μg/mL; Sigma, MO, USA) for 10 min in the dark. The coverslips with cells were washed in deionized water and mounted on glass slides, using the hydrophilic medium Mowiol (Calbiochem, Calif., USA) in glycerol-PBS (1:3, v/v) for fluorescence. Cells were visualized using microscopy and those incorporating BrdU (S phase cells) were counted in at least 25 fields and compared with the total number of all cells.

LNCaP cells [2] = test: TUNEL detection of apoptosis, LNCaP; conditions: IC50 concentration
Description: TdT-Mediated dUTP nick end labeling (TUNEL) detection of apoptosis index. For detection of apoptotic cells, the TUNEL assay was used. […] After period of treatment, the cells were washed with PBS and fixed on the slides with cold acetone-methanol (1:1, v/v) for 10 min. Apoptosis-induced nuclear DNA fragmentation was detected by terminal deoxynucleotidyl transferase-mediated UTP nick end labeling (TUNEL) technique according to the producer protocol (In Situ Cell Death Detection Kit; Roche Diagnostics, Mannheim, Germany). The cells were then washed three times in PBS and stained with 4′-6-diamidino-2-phenylindole (DAPI; 50 μg/ml; Sigma, St. Louis, Mo., USA) for 10 min in the dark. The coverslips with cells were washed in deionized water and mounted on glass slides, using the hydrophilic medium Mowiol (Calbiochem, Fremont, Calif., USA) in glycerol-PBS (1:3, v/v) for fluorescence. Cells were visualized using fluorescence microscopy and compared with control cells. TUNEL staining achieved to confirm apoptosis in all cell lines.

MDA-MB-468 cells = test: Cell cycle distribution by flow cytometry, MDA-MB-468; conditions: IC50, 24 h; for Apoptosis subG1 fraction: control 10%; for Cell cycle distribution G2/M: control 17%; for Cell cycle distribution S: control 31%; for Cell cycle distribution G1: control 52%
Text: In the MCF-7 breast cancer cell line that has been the most widely studied experimental cell system, the typical growth inhibitory response to antiestrogens is decrease in the proportion of cells synthesising DNA (S phase) after antiestrogen treatment. This decrease in S phase coincides with an increase in the proportion of cells in G0/G1 phase. The activity of the androgen receptor (AR) is also regulated by alterations in cell signaling. There has been reported ligand independent activation of AR in prostate cancer cells by different growth factors. As the AR can be activated in the absence of hormone, it appears that the conditions may be more restricted than those observed for ER. Use of physiologic doses of ligand (dihydrotestosterone, DHT) is of importance as the LNCaP cells proliferate only at DHT concentration of 10^−9 M or lower. […] In contrast to proliferation, transactivation of AR specific target genes (e.g. PSA) continues to increase with DHT doses of 10^−10 M and higher. It might be accepted for estrogen or androgen receptors as stronger cytotoxic activities of brassinosteroids 9 or 6 on hormone-sensitive (MCF-7, LNCaP) compared to hormone-insensitive (MDA-MB-468, DU-145) cell lines were found. Therefore we explored the possibility of cell cycle perturbation by BRs in different cancer cell lines. Flow cytometry was used to evaluate the number of cells in the particular phases of the cell cycle, including subG1 peak detection. Control and treated cells were washed twice with cold PBS and centrifuged at 360×g for 10 min at 4° C., and fixed with chilled ethanol (70%; v/v) by low-speeded vortexing. For detection of DNA content analysis, propidium iodide staining was used. The cells were analyzed using a FACSCalibur flow cytometer (BD Biosciences, San Jose, Calif.).
Flow-cytometric detection of apoptosis. Several studies have declared that the induction of apoptosis may be cell cycle-dependent. Therefore, in our next series of experiments, we tested if brassinosteroids 9 or 6 cause apoptosis of the breast and prostate cancer cells via cell cycle blockage. From this reason we carried out DNA cell cycle analysis by flow cytometry based on detection of endonucleolytic DNA degradation that results in extraction of low molecular weight DNA from the cells. […] The subG1 peak containing apoptotic bodies was however not observed in MCF-7 cells.

[3] = treated at IC50 for 6 h, control 44 ± 6.0
[4] = treated at IC50 for 12 h, control 52 ± 7.6
[5] = treated at IC50 for 24 h, control 59 ± 8.0

Row | Compound | percentage of proliferating BrdU positive cells (LNCaP cells [1]; [3]) [%] | percentage of proliferating BrdU positive cells (LNCaP cells [1]; [4]) [%] | percentage of proliferating BrdU positive cells (LNCaP cells [1]; [5]) [%] | percentage of TUNEL positive cells (LNCaP cells [2]; 6 h, control 0.3 ± 0.6) [%] | percentage of TUNEL positive cells (LNCaP cells [2]; 12 h, control 0.6 ± 0.6) [%] | percentage of TUNEL positive cells (LNCaP cells [2]; 24 h, control 0.6 ± 0.6) | Apoptosis subG1 fraction (MDA-MB-468 cells) [%] | Cell cycle distribution G2/M (MDA-MB-468 cells) [%] | Cell cycle distribution S (MDA-MB-468 cells) [%] | Cell cycle distribution G1 (MDA-MB-468 cells) [%]
1 | CC[C@@H](C(C)C)[C@@H](O)[C@H](O)[C@@H](C)[C@H]1CC[C@H]2[C@@H]3CC(=O)[C@H]4C[C@H](O)[C@H](O)C[C@]4(C)[C@H]3CC[C@]12C [Brassinosteroid 9, 28-Homocastasterone] | 25 ± 3.0 | 28 ± 4.6 | 27 ± 2.1 | 7.3 ± 2.1 | 15.7 ± 2.5 | 25.8% and 25.8 ± 2.5 % | 35 | 9 | 17 | 74
2 | CC(C)[C@@H](C)[C@@H](O)[C@H](O)[C@@H](C)[C@H]1CC[C@H]2[C@@H]3COC(=O)[C@H]4C[C@H](O)[C@H](O)C[C@]4(C)[C@H]3CC[C@]12C [Brassinosteroid 6, 24-Epibrassinolide] | 36 ± 5.5 | 31 ± 2.0 | 29 ± 4.7 | 10.7 ± 4.0 | 12.2 ± 5.1 | 21.9% and 21.9 ± 3.0 % | 75 | 2 | 10 | 88
